Experimental data as given in patent US6342531B1, “Pharmaceutical composition containing a cysteine protease inhibitor for prophylaxis and therapy of brain tissue impairment” (Senju Pharmaceutical Co., Ltd., priority 1998, dated 2002).
Non-standard residues stand in square brackets, D forms with d. Residues, ends and D or L forms follow the SMILES beside them. *: point of attachment. Nle = CCCC[C@H](N)C(=O)O; Cbz = O=C(OCc1ccccc1)*

Assays:
[1] = test system: nerve cells in the hippocampal CA1 region; assay: Effect on ischemic disorder of the brain: bilateral common carotid artery occlusion, nerve cell counts in hippocampal CA1 region; assay type: in vivo; conditions: gerbil, 10 min ischemia, 100 mg/kg intraperitoneally 15 min before ischemia, immediately after reperfusion, then once daily, counted 5 days after reperfusion; for ischemia-induced decrease in the number of normal nerve cells in the hippocampal CA1 region: FIG. 1; for ischemia-induced increase in the number of apoptotic nerve cells in the hippocampal CA1 region: FIG. 2
Method: The bilateral common carotid arteries of gerbils (male, body weights 60-80 g) were exposed under ether anesthesia. Then, in a conscious state, the carotid arteries were occluded with aneurysm clips to arrest the blood flow for 10 minutes. Ischemia was confirmed by checking the arrest of retinal blood flow with a blood flow meter (Advance laser flow meter (ALF21N), Advance Co. Ltd.) and observation of ischemic symptoms such as seizure, circling, and ptosis. After removal of the clips, reperfusion was confirmed with the blood flow meter. Five days after reperfusion, the animal was anesthetized with ether and was perfused with saline through the left ventricle for removal of blood and further with 4% formaldehyde for fixation of the brain tissue. The tissue was embedded in paraffin and thin sections were prepared and stained with hematoxylin-eosin in the routine manner. The nerve cells in the hippocampal CA1 region were observed under a light microscope and the normal nerve cells remaining in a 1.0 mm span of the hippocampal CA1 region were counted. Separately, using Apoptosis in situ Detection Kit Wako (Wako Pure Chemical Ind., Ltd.), the apoptosis in the paraffin-embedded brain tissue specimen was detected and using the light microscope, the apoptotic nerve cells per 1.0 mm span of the hippocampal CA1 region were counted.
In the normal group, the common carotid arteries were exposed but no ischemia was introduced. As the test drug, a parenteral suspension prepared as in Example 3 was administered intraperitoneally in a dose of 100 mg Compound 1 per kg body weight 15 minutes before ischemia, immediately after reperfusion, and thereafter once daily (Compound 1 administration group). In the control group and normal group, the vehicle used in Example 3 was similarly administered. As a positive control, Cbz-Val-Phe-H [MDL; S. C. Hong et al., Stroke, 25 (3), 663-669 (1994)], 100 mg/kg body weight, was similarly administered (MDL administration group).

[2] = Toxicity study, single oral dose, 14-day observation; assay type: in vivo, Wister rats; conditions: rat, oral 1000 mg/kg
Method: Five-week-old Wister rats (male, body weights 80-105 g) were orally given a 3.3 w/v % suspension of Compound 1 in 0.5 w/v % carboxymethylcellulose in a dose of 1000 mg as Compound 1 per kg body weight. […] Body weights were recorded before dosing and once daily for 14 days after dosing. Autopsy was performed after sacrifice by exsanguination under ether anesthesia after 14 days and the organs were grossly examined. The control group received 0.5 w/v % carboxymethylcellulose.

[3] = test system: cytopathy due to cerebral ischemia; conditions: rats, administered intravenously; cited from earlier work
neurons [4] = conditions: administered intraperitoneally; cited from earlier work
neurons [5] = conditions: directly administered into the animal cerebral ventricle; cited from earlier work

**Q.** With `CC(C)C[C@@H](C=O)NC(=O)[C@@H](NS(=O)(=O)c1ccc(F)cc1)C(C)C` [Compound 1, N-(4-fluorophenylsulfonyl)-L-valyl-L-leucinal] as the molecule, how does the “ischemia-induced decrease in the number of normal nerve cells in the hippocampal CA1 region” value [1] read?
**A.** significantly inhibited

**Q.** And the “ischemia-induced increase in the number of apoptotic nerve cells in the hippocampal CA1 region” value [1]?
**A.** significantly inhibited

**Q.** And the “body weight gain versus control group” value ([2]; 14 days)?
**A.** no difference

**Q.** What about the “autopsy findings versus control group” value ([2]; autopsy after 14 days) of the same molecule?
**A.** no difference

**Q.** What about the “general condition and behavior” value ([2]; observed 14 days) of the same molecule?
**A.** no change

**Q.** For `CC(C)[C@H](NC(=O)OCc1ccccc1)C(=O)N[C@H](C=O)Cc1ccccc1` [MDL, Cbz-Val-Phe-H] (Cbz-Val-Phe-aldehyde), which “ischemia-induced decrease in the number of normal nerve cells in the hippocampal CA1 region” value [1] is on record?
**A.** little inhibitory effect

**Q.** What about the “ischemia-induced increase in the number of apoptotic nerve cells in the hippocampal CA1 region” value [1] of the same molecule?
**A.** little inhibitory effect

**Q.** And the “cytopathy due to cerebral ischemia” value [3]?
**A.** inhibited cytopathy

**Q.** Which “protection of neurons from excitotoxic factors” value (neurons [4]) does the source give for `CCCC[C@@H](C=O)NC(=O)[C@H](CC(C)C)NC(=O)[C@H](CC(C)C)NC(C)=O` [calpain inhibitor I] (Ac-Leu-Leu-[Nle]-aldehyde) here?
**A.** protect neurons from excitotoxic factors

**Q.** With `CC(=O)N[C@@H](CC(C)C)C(=O)N[C@@H](CC(C)C)C(=O)N[C@H](C=O)CCCNC(=N)N` [leupeptin] as the molecule, how does the “protection of neurons against damage by cerebral ischemia” value (neurons [5]) read?
**A.** protects neurons against damage
